Activity calls are given as the source filed them.
Key:
[1] = molecular target: T1, Cytochrome P450 3A4 (Homo sapiens, UniProt P08684)
[2] = molecular target: Ephrin type-A receptor 4 (Mus musculus, UniProt Q03137); test: EphA4 ligand-binding antagonists – biochemical, colorimetric, mouse EphA4, primary screen (AID 689); assay type: functional
[3] = molecular target: Cytochrome P450 2C19 (Homo sapiens, UniProt P33261); test: Cytochrome panel assay with activity outcomes. Panel member name: p450-cyp2c19 Compounds with AC50 equal or less than 10 uM are considered active; assay type: functional; settings: read-out: AC50
[4] = molecular target: Cytochrome P450 2C9 (Homo sapiens, UniProt P11712); settings: Potency
[5] = molecular target: Voltage-dependent T-type calcium channel subunit alpha-1H (Homo sapiens, UniProt O95180); assay type: functional;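 also: channel activity triggered by adding a high calcium stimulation buffer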
[6] = molecular target: Protein-tyrosine kinase 2-beta (Homo sapiens, UniProt Q14289);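 also: potency of inhibitors of PYK2 kinase phosphorylation of poly-GT substrate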
[7] = molecular target: Nonstructural protein 1 (Influenza A virus, UniProt Q194T2); assay type: functional, Influenza A virus (A/California/07/2009(H1N1))
Chain of Nonstructural protein 1 (Q194T2 whole entry): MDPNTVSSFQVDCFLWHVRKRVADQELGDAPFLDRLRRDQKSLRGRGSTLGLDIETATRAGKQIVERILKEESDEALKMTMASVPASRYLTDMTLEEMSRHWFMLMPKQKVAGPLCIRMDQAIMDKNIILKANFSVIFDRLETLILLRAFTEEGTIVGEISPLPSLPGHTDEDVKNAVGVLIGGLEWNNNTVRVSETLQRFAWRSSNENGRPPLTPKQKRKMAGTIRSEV

[8] = molecular target: Sphingosine 1-phosphate receptor 3 (Homo sapiens, UniProt Q99500); test: Dose response cell-based high throughput screening assay for antagonists of the Sphingosine 1-Phosphate Receptor 3 (S1P3). [Related pubchem assays: 1429, 485 ]; assay type: functional
Chain of Sphingosine 1-phosphate receptor 3 (Q99500 whole entry): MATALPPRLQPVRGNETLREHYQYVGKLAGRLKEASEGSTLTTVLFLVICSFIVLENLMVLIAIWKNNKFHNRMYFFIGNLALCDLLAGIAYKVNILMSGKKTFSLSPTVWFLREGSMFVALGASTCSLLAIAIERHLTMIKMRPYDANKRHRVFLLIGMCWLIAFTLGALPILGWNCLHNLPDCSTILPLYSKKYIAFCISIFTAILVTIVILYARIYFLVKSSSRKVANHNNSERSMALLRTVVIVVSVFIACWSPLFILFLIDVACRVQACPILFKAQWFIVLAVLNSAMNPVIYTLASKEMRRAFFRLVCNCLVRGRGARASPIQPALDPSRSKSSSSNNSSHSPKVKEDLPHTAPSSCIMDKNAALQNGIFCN

[9] = molecular target: 5-hydroxytryptamine receptor 1E (Homo sapiens, UniProt P28566); test: Counterscreen assay for S1P3 antagonists: Dose response cell-based high throughput screening assay to identify antagonists of the 5-Hydroxytryptamine Receptor Subtype 1E (5HT1E). [Related pubchem assays: 1429, 485 ]; assay type: functional
Chain of 5-hydroxytryptamine receptor 1E (P28566 whole entry): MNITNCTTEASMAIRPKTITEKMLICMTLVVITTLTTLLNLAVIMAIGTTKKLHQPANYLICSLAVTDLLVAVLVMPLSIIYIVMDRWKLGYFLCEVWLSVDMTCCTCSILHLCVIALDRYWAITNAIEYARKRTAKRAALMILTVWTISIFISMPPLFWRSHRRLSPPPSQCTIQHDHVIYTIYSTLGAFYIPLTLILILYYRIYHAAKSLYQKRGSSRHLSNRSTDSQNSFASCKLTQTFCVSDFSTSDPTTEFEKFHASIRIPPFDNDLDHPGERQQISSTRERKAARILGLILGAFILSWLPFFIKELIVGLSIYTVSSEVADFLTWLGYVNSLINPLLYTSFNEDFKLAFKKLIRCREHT

[10] = molecular target: T2, Voltage-gated N-type calcium channel alpha-1B subunit/Amyloid beta A4 precursor protein-binding family A member 1 (Homo sapiens, UniProt Q00975+Q02410); test: disruptors of Mint-PDZ/N-type channel peptide interaction – biochemical, HTRF, set 2, SAR follow-up (AID 434980); assay type: functional
T2 sequence (Q00975 whole entry): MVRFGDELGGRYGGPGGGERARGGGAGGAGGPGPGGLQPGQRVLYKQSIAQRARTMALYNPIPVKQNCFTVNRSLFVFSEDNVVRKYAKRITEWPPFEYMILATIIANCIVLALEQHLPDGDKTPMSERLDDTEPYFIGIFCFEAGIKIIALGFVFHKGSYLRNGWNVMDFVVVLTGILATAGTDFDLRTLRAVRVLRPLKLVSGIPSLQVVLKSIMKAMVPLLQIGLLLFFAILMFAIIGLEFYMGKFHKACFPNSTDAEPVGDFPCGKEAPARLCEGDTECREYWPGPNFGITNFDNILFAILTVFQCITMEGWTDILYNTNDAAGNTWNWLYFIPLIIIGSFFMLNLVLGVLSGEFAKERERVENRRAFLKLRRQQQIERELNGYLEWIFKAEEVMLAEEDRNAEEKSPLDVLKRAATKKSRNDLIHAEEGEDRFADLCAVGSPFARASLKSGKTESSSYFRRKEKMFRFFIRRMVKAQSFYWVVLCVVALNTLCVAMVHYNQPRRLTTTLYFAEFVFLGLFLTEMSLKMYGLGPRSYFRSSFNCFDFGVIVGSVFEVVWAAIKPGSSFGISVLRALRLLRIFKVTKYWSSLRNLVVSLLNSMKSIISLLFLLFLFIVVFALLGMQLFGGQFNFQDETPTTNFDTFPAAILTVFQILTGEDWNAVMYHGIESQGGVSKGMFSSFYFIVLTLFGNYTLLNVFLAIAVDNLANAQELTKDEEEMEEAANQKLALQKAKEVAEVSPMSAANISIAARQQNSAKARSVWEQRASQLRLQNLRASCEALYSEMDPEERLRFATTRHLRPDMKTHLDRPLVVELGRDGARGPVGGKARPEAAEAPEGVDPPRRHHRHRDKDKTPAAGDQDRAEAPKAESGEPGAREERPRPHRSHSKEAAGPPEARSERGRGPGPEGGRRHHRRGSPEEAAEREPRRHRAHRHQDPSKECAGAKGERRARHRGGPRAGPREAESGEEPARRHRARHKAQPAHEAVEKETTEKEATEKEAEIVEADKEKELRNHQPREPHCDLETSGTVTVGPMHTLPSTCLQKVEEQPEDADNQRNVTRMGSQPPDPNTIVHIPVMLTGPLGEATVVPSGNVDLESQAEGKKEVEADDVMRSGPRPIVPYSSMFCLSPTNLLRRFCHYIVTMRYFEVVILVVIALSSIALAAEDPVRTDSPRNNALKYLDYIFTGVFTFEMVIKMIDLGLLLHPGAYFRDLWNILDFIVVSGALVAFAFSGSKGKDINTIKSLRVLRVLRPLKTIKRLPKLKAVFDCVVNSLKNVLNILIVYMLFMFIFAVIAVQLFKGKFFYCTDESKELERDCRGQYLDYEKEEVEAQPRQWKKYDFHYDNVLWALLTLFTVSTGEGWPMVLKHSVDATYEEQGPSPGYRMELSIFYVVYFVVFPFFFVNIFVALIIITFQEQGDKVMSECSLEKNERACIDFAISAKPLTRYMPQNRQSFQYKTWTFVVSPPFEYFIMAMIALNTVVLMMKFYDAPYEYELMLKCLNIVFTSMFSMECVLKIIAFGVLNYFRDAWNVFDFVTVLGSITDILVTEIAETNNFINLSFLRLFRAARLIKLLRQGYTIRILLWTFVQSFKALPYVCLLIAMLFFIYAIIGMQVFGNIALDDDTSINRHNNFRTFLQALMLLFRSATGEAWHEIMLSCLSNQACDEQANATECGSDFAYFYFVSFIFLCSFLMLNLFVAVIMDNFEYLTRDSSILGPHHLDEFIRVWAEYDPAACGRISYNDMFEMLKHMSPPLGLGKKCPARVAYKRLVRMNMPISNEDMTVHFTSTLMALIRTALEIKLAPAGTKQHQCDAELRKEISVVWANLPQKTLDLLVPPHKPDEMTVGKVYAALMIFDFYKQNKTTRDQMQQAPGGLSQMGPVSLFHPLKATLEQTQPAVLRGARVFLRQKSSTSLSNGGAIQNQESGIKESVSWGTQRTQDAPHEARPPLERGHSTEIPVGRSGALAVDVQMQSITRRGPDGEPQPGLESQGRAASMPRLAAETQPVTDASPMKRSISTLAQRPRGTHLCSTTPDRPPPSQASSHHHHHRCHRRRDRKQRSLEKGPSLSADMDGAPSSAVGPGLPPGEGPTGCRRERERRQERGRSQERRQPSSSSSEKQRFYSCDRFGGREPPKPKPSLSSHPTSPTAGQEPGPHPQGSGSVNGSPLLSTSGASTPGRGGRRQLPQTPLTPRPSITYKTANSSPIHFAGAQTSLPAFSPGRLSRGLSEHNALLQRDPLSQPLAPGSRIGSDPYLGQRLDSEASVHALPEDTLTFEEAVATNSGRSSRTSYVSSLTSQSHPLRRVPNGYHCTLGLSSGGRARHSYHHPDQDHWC
T2 sequence (Q02410 whole entry): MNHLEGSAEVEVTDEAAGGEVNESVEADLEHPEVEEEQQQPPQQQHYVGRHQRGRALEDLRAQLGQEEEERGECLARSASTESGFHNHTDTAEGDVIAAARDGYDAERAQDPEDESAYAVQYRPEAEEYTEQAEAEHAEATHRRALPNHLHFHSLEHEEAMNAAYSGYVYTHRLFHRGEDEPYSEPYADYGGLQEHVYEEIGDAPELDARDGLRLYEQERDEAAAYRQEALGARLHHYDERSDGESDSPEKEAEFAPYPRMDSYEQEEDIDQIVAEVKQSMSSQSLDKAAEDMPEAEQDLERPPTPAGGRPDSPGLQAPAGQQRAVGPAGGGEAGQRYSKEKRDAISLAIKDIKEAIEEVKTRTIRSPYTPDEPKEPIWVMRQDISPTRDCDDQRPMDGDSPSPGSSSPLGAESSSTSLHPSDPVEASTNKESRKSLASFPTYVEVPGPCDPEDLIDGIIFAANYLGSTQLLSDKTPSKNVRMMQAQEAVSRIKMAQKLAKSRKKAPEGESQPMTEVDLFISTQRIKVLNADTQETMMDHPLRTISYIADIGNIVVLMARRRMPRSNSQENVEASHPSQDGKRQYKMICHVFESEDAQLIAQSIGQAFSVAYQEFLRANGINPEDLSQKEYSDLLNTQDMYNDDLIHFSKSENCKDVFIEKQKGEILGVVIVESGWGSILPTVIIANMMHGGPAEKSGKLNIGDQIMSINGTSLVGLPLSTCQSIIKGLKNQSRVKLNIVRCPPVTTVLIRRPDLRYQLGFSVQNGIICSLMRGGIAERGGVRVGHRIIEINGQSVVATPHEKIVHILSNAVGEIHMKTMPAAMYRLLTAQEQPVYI

[11] = molecular target: T2, Voltage-gated N-type calcium channel alpha-1B subunit/Amyloid beta A4 precursor protein-binding family A member 1; test: disruptors of Mint-PDZ/N-type channel peptide interaction – biochemical, HTRF, SAR follow-up (AID 2489); assay type: functional
[12] = test system: Vero; test: Vero cell viability after compound exposure – synthesized analogs, set II, cytotoxicity control for West Nile virus antiviral project, SAR follow-up (AID 2402); assay type: functional; settings: Chlorocebus sabaeus
[13] = A Cell Based Assay for the Identification of Probe candidate Compounds with Anti- Venezuelan Equine Encephalitis virus. [Related pubchem assays: 2409, 2419, 1621, 2238, 2405, 2024, 2065, 2402, 2414, 1635, 1650, 2244 ]; assay type: functional
[14] = molecular target: Lytic switch protein BZLF1 (Epstein-Barr virus (strain B95-8) (HHV-4) (Human herpesvirus 4), UniProt P03206); test: inhibition of BZLF1 ZTA DNA binding – biochemical, fluorescence polarization, Epstein-Barr virus, 1536-well, counter-screen for EBNA-1 inhibitor project, dose response (AID 2377); design: species or system human gammaherpesvirus 4;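 also: fluorescence polarization of Cy5-labelled ZRE DNA probe bound by purified Zta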
Chain of Lytic switch protein BZLF1 (P03206 whole entry): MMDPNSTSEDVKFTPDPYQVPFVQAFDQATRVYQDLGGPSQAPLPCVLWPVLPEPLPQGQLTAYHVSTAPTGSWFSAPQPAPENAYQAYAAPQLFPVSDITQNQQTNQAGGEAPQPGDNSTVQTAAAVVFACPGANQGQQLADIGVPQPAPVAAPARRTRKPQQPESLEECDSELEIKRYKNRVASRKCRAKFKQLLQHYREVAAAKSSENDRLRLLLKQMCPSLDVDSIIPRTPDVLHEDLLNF

[15] = molecular target: Epstein-Barr nuclear antigen 1 (Epstein-Barr virus (strain B95-8) (HHV-4) (Human herpesvirus 4), UniProt P03211); test: inhibition of EBV nuclear antigen 1 DNA binding – biochemical, fluorescence polarization, 1536-well, dose response (AID 2381); design: species or system human gammaherpesvirus 4;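 also: fluorescence polarization of a Cy5 DNA probe bound by EBNA-1 protein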
Chain of Epstein-Barr nuclear antigen 1 (P03211 whole entry): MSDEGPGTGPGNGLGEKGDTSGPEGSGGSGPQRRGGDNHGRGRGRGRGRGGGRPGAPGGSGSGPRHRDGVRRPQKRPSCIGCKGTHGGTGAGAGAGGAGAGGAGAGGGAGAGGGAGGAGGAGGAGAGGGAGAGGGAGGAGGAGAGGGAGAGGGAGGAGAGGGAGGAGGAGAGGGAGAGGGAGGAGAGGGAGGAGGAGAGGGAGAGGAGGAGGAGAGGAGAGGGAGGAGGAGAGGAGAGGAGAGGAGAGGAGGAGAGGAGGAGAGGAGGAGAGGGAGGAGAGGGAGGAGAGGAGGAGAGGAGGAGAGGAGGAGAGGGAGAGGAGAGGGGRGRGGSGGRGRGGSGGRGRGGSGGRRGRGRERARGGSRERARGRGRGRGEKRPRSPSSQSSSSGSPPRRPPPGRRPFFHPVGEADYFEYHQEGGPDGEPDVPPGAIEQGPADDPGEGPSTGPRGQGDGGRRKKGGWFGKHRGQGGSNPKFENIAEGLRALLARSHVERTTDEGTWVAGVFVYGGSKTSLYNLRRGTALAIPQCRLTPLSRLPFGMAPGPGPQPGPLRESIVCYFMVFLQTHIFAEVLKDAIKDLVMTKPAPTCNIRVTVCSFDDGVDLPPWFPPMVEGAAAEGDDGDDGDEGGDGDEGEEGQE

[16] = molecular target: DNA dC->dU-editing enzyme APOBEC-3G (Homo sapiens, UniProt Q9HC16); test: Dose Response confirmation of small molecule APOBEC3G DNA Deaminase Inhibitors via a fluorescence-based single-stranded DNA deaminase assay. [Related pubchem assays (depositor defined):AID493012, AID493028]; assay type: functional
[17] = molecular target: DNA dC->dU-editing enzyme APOBEC-3A (Homo sapiens, UniProt P31941); test: A3A deaminase inhibition for selectivity – biochemical, dose response (AID 504722); assay type: functional
[18] = molecular target: T3, RNA-binding protein pos-1 (Caenorhabditis elegans, UniProt G5EF15); test: disruptors of C. elegans POS-1 RNA interaction – biochemical, fluorescence polarization, dose response (AID 1964);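 also: purified POS-1 fused to maltose binding protein made in E. coli; potency of compounds blocking POS-1 binding to fluorescent RNA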
T3 sequence (G5EF15 whole entry): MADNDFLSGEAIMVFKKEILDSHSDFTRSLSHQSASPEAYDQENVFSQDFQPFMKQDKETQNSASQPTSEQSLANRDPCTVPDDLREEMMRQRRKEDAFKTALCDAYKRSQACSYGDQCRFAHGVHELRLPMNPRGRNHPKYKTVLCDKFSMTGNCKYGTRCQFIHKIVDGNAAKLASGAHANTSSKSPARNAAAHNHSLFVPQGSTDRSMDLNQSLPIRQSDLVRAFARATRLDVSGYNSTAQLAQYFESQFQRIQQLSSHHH

[19] = molecular target: Mitogen-activated protein kinase 10 (Homo sapiens, UniProt P53779); test: Dose response biochemical screening assay for inhibitors of c-Jun N-Terminal Kinase 3 (JNK3). [Related pubchem assays: 746 ]
[20] = molecular target: T4, Zinc finger protein mex-5 (Caenorhabditis elegans, UniProt Q9XUB2); test: potency of MEX-5 RNA-binding blockers – biochemical, C. elegans, fluorescence polarization, dose response (AID 1960)
T4 sequence (Q9XUB2 whole entry): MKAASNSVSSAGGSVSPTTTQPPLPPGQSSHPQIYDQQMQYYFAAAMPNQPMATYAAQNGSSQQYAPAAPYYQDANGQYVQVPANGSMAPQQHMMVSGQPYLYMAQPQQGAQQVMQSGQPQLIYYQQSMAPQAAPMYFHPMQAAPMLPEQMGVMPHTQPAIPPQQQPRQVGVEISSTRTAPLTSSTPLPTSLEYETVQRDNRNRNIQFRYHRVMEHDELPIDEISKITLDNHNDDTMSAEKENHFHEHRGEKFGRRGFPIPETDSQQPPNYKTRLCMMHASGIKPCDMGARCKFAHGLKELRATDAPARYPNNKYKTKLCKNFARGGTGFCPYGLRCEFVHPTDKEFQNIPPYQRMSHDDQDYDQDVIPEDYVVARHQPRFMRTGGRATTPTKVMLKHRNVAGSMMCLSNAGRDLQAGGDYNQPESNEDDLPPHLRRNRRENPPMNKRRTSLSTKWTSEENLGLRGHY

[21] = molecular target: T1, Cytochrome P450 3A4; settings: Potency
[22] = molecular target: 5-hydroxytryptamine receptor 1A (Homo sapiens, UniProt P08908); assay type: functional

## CC1Cc2ccccc2N1Cc1nc(O)c2ccc(C(F)(F)F)cc2n1 (configuration not stated)
[1]
  AC50: 25.1 µM (inconclusive)
[2]
  IC50: > 100 µM (not active)
[3]
  AC50: 0.0282 µM (inconclusive)

## CC(=O)c1ccc(OC2C=CC(c3ccc(Cl)cc3)OC2CO)cc1 (configuration not stated)
[4]
  AC50: 5.01 µM (inconclusive)

## Cc1cccc2cc(/C=C3\N=C(c4ccccc4)OC3=O)c(N3CCOCC3)nc12
[5]
  EC50: 0.685 µM (active)
[2]
  IC50: 1.35 µM (active)

## CN(C)c1cc2c(c(N(C)C)c1)C(=O)c1ccccc1C2=O
[6]
  IC50: 2.13 µM (active)
[7]
  IC50: 14.1 µM (active)

## Cc1ccc(NC(=O)C(C)c2ccc([N+](=O)[O-])cc2)cc1Cl (configuration not stated)
[8]
  IC50: 11.3 µM (not active)
[9]
  IC50: 13.4 µM (not active)

## Cc1ccc(N2C(=O)C3C(C2=O)C2(C)C=CC3(C)O2)cc1 (configuration not stated)
[10]
  IC50: > 56.8 µM (inactive)
[11]
  IC50: 11.5 µM (active)

## COc1ccc(-c2csc(N(CCCBr)C(=O)c3ccccc3Cl)n2)cc1
[12]
  CC50: 78.2 µM (active)
[13]
  IC50: > 66.6 µM (active)

## NS(=O)(=O)c1ccc(NC(=O)COC(=O)/C(=C/c2cccs2)c2cccs2)cc1
[14]
  IC50: > 111 µM (not active)
[15]
  IC50: 17.1 µM (not active)

## CCN(CC)S(=O)(=O)c1cccc(-c2n[nH]c(=S)n2C)c1
[16]
  IC50: 4.94 µM (active)
[17]
  IC50: > 100 µM (inactive)

## CCc1ccccc1NC1c2ccccc2C(=O)N1Cc1ccco1 (configuration not stated)
[8]
  IC50: > 50 µM (not active)
[9]
  IC50: 15.6 µM (not active)

## COC1(OC)N=C(N)C2(C#N)C(c3ccc4c(c3)OCO4)C12C#N (configuration not stated)
[18]
  EC50: 59.9 µM (active)
[19]
  IC50: > 93.1 µM (not active)
[20]
  EC50: 64.3 µM (active)

## Cc1nc(N2CCOCC2)c2nc(-c3ccccc3)n(C(C)CN(C)C)c2n1 (configuration not stated)
[21]
  AC50: 20 µM (inconclusive)

## Cn1cc(/C(Cc2ccccc2)=N\O)c2ccccc21
[22]
  EC50: > 50 µM (not active)

## Nc1c(C(=O)Nc2ccc3c(c2)OCCO3)nnn1Cc1cccc(Cl)c1
[14]
  IC50: > 111 µM (not active)
[15]
  IC50: 9.25 µM (active)
